In patent publication US12264134B2 (Merck Sharp & Dohme LLC, priority 2018, dated 2025):

Tests used:
[1] = target: T1, IDO1 (Homo sapiens, UniProt P14902); experiment: IDO1 Human Whole blood Assay; type: cell-based; design: Human whole blood was drawn in sodium heparin coated tubes from healthy internal donors; from tissue; host or cells: human whole blood from healthy donors, stimulated with LPS and IFNγ; settings: LPS and IFNγ stimulated, 18 h, read-out: Human Whole Blood Potency, IC50
Outline: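 LC/MS/MS of kynurenine, normalized to spiked isotope-labeled standard (3 μM final), served as the readout. Beforehand, fresh human blood with compound (15 min preincubation) was stimulated overnight (18 h, 37 °C) with 100 ng/mL LPS/IFNγ. IC50 was obtained by four-parameter curve fitting.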

[2] = target: T1, IDO1; experiment: IDO1 Cellular Assay in HeLa Cells Stimulated with IFNγ; type: cell-based; settings: read-out: HeLa Cell Potency, IC50

T1 sequence (P14902 whole entry): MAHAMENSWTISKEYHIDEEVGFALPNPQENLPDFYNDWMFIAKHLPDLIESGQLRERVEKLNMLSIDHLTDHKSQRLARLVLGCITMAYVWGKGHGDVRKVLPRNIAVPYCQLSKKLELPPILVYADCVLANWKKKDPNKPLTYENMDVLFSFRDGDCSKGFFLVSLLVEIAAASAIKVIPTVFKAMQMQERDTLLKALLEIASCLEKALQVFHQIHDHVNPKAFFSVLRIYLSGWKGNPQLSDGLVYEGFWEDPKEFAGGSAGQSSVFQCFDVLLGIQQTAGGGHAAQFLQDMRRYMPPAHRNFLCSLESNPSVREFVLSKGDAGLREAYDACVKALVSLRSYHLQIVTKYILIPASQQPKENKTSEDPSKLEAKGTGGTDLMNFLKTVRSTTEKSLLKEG

| IC50 [1] [nM] | IC50 [2] [nM] | Structure (SMILES) |
| --- | --- | --- |
| 141 | 2.33 | Cc1c(Cl)cccc1N1CCN(C(=O)Cn2nc(C(=O)N3CCC(O)CC3)c3c2CCC(F)C3)CC1 (stereo not shown) [Example 366, 1-(4-(3-chloro-2-methylphenyl)piperazin-1-yl)-2-(5-fluoro-3-(4-hydroxypiperidine-1-carbonyl)-4,5,6,7-tetrahydro-1H-indazol-1-yl)ethan-1-one] |
| 172 | 3.25 | Cc1c(Cl)cccc1N1CCN(C(=O)Cn2nc(C(=O)N3CCC(O)CC3)c3c2CCC(F)(F)C3)CC1 [Example 379, 1-(4-(3-chloro-2-methylphenyl)piperazin-1-yl)-2-(5,5-difluoro-3-(4-hydroxypiperidine-1-carbonyl)-4,5,6,7-tetrahydro-1H-indazol-1-yl)ethan-1-one] |
| 94 | 1.67 | CC(=O)NC1CCN(C(=O)c2nn(CC(=O)N3CCN(c4cccc(Cl)c4C)CC3)c3c2CC(F)(F)CC3)CC1 [Example 380, N-(1-(1-(2-(4-(3-chloro-2-methylphenyl)piperazin-1-yl)-2-oxoethyl)-5,5-difluoro-4,5,6,7-tetrahydro-1H-indazole-3-carbonyl)piperidin-4-yl)acetamide] |
| 598 | 4.85 | Cc1c(Cl)cccc1N1CCN(C(=O)Cn2nc(C(=O)N3CC[C@H](O)[C@H](F)C3)c3c2CCC(F)(F)C3)CC1 [Example 381] |
| 249 | 5.32 | Cc1c(Cl)cccc1N1CCN(C(=O)Cn2nc(C(=O)N3CCN(C(=O)CO)CC3)c3c2CCC(F)(F)C3)CC1 [Example 384, 1-(4-(3-chloro-2-methylphenyl)piperazin-1-yl)-2-(5,5-difluoro-3-(4-(2-hydroxyacetyl)piperazine-1-carbonyl)-4,5,6,7-tetrahydro-1H-indazol-1-yl)ethan-1-one] |
| 1000 | 5 | Cc1cccc(N2CCN(C(=O)Cn3nc(C(=O)N4C[C@@H](C)O[C@@H](C)C4)c4c3CCC4)C3(CC3)C2)c1C [Example 391, 2-(3-((2S,6R)-2.6-dimethylmorpholine-4-carbonyl)-5,6-dihydrocyclopenta[c]pyrazol-1(4H)-yl)-1-(7-(2,3-dimethylphenyl)-4.7-diazaspiro[2.5]octan-4-yl)ethanone] |
| 180 | 3.58 | Cc1c(Cl)cccc1N1CCN(C(=O)Cn2nc(C(=O)N3CCN(C(=O)CO)CC3)c3c2CCCC3)CC1 [Example 405, 1-(4-(3-chloro-2-methylphenyl)piperazin-1-yl)-2-(3-(4-(2-hydroxyacetyl)piperazine-1-carbonyl)-4,5,6,7-tetrahydro-1H-indazol-1-yl)ethanone] |
| 306 | 3 | Cc1c(Cl)cccc1N1CCN(C(=O)Cn2nc(C(=O)N3CC[C@@H](O)[C@@H](F)C3)c3c2CCCC3)CC1 [Example 406, 1-(4-(3-chloro-2-methylphenyl)piperazin-1-yl)-2-(3-((3S,4R)-3-fluoro-4-hydroxypiperidine-1-carbonyl)-4,5,6,7-tetrahydro-1H-indazol-1-yl)ethanone] |
| 365 | 3.54 | Cc1c(Cl)cccc1N1CCN(C(=O)Cn2nc(C(=O)N3CCC(O)CC3)c3c2C(F)(F)[C@H]2C[C@@H]32)CC1 [Example 448, 1-(4-(3-chloro-2-methylphenyl)piperazin-1-yl)-2-((3bR,4aS)-5,5-difluoro-3-(4-hydroxypiperidine-1-carbonyl)-3b,4,4a,5-tetrahydro-1H-cyclopropa[3,4]cyclopenta[1,2-c]pyrazol-1-yl)ethanone] |
| 543 | 7.99 | Cc1cccc(N2CCN(C(=O)Cn3nc(C(=O)N4C[C@@H](C)O[C@@H](C)C4)c4c3C3CC3C4)CC2)c1C (stereo partly drawn) [Example 449, 2-(3-((2R,6S)-2,6-dimethylmorpholine-4-carbonyl)-4,4a,5,5a-tetrahydro-1H-cyclopropa[4,5]cyclopenta[1,2-c]pyrazol-1-yl)-1-(4-(2,3-dimethylphenyl)piperazin-1-yl)ethanone] |
| 152 | 1.83 | Cc1cccc(N2CCN(C(=O)Cn3nc(C(=O)N4CCC(O)CC4)c4c3CCCC4)CC2)c1Cl [Example 450, 1-(4-(2-chloro-3-methylphenyl)piperazin-1-yl)-2-(3-(4-hydroxypiperidine-1-carbonyl)-4,5,6,7-tetrahydro-1H-indazol-1-yl)ethanone] |
| 36 | 1.2 | Cc1c(F)ccc(N2CCN(C(=O)Cn3nc(C(=O)N4CCC(O)CC4)c4c3CCCC4)CC2)c1C [Example 451, 1-(4-(4-fluoro-2,3-dimethylphenyl)piperazin-1-yl)-2-(3-(4-hydroxypiperidine-1-carbonyl)-4,5,6,7-tetrahydro-1H-indazol-1-yl)ethanone] |
| 68 | 2.82 | Cc1cccc(N2CCN(C(=O)Cn3nc(C(=O)N4CCN(CC(N)=O)CC4)c4c3CCCC4)CC2)c1C [Example 454, 2-(4-(1-(2-(4-(2,3-dimethylphenyl)piperazin-1-yl)-2-oxoethyl)-4,5,6,7-tetrahydro-1H-indazol-3-carbonyl)piperazin-1-yl) acetamide] |
| 102 | 21.4 | Cc1c(F)cccc1N1CCN(C(=O)Cn2nc(C(=O)N3CCC(OCCO)CC3)c3c2CCC3)CC1 [Example 456, 1-(4-(3-fluoro-2-methylphenyl)piperazin-1-yl)-2-(3-(4-(2-hydroxyethoxy)piperidine-1-carbonyl)-5,6-dihydrocyclopenta[c]pyrazol-1(4H)-yl) ethanone] |
| 307 | 1.75 | Cc1cccc(N2CCN(C(=O)Cn3nc(C(=O)N4CC[C@@H](O)[C@@H](F)C4)c4c3CCCC4)CC2)c1Cl [Example 457, 1-(4-(2-chloro-3-methylphenyl)piperazin-1-yl)-2-(3-((3S,4R)-3-fluoro-4-hydroxy-piperidine-1-carbonyl)-4,5,6,7-tetrahydro-1H-indazol-1-yl)ethanone] |
| 103 | 1.32 | Cc1c(F)ccc(N2CCN(C(=O)Cn3nc(C(=O)N4CC[C@@H](O)[C@@H](F)C4)c4c3CCCC4)CC2)c1C [Example 462, 1-(4-(4-fluoro-2,3-dimethylphenyl)piperazin-1-yl)-2-(3-((3S,4R)-3-fluoro-4-hydroxy-piperidine-1-carbonyl)-4,5,6,7-tetrahydro-1H-indazol-1-yl)ethanone,] |
| 37 | 1.37 | Cc1cccc(N2CCN(C(=O)Cn3nc(C(=O)N4CCC(OCCO)CC4)c4c3CCCC4)CC2)c1C [Example 463, 1-(4-(2,3-dimethylphenyl)piperazin-1-yl)-2-(3-(4-(2-hydroxyethoxy)piperidine-1-carbonyl)-4,5,6,7-tetrahydro-1H-indazol-1-yl)ethanone] |
| 135 | 1.38 | Cc1c(F)ccc(N2CCN(C(=O)Cn3nc(C(=O)N4CCC(O)CC4(C)C)c4c3CCCC4)CC2)c1C (stereo not shown) [Example 464, 1-(4-(4-fluoro-2,3-dimethylphenyl)piperazin-1-yl)-2-(3-(4-hydroxy-2,2-dimethyl-piperidine-1-carbonyl)-4,5,6,7-tetrahydro-1H-indazol-1-yl)ethanone] |
| 87 | 1.47 | Cc1c(F)ccc(N2CCN(C(=O)Cn3nc(C(=O)N4CC[C@H](O)[C@H](F)C4)c4c3CCCC4)CC2)c1C [Example 465, 1-(4-(4-fluoro-2,3-dimethylphenyl)piperazin-1-yl)-2-(3-((3R,4S)-3-fluoro-4-hydroxypiperidine-1-carbonyl)-4,5,6,7-tetrahydro-1H-indazol-1-yl)ethanone] |
| 233 | 1.69 | Cc1cccc(N2CCN(C(=O)Cn3nc(C(=O)N4CCC(O)CC4)c4c3CCCC4)CC2)c1C [Example 466, 1-(4-(2,3-dimethylphenyl)piperazin-1-yl)-2-(3-(4-hydroxy-piperidine-1-carbonyl)-4,5,6,7-tetrahydro-1H-indazol-1-yl)ethanone] |
| 88 | 1.9 | Cc1cccc(N2CCN(C(=O)Cn3nc(C(=O)N4CC[C@H](O)[C@@H](F)C4)c4c3CCCC4)CC2)c1C [Example 468, 1-(4-(2,3-dimethylphenyl)piperazin-1-yl)-2-(3-((3S,4S)-3-fluoro-4-hydroxypiperidine-1-carbonyl)-4,5,6,7-tetrahydro-1H-indazol-1-yl)ethanone] |
| 31 | 2.62 | Cc1cccc(N2CCN(C(=O)Cn3nc(C(=O)N4CCO[C@@H](CO)C4)c4c3CCCC4)CC2)c1C [Example 470, (R)-1-(4-(2,3-dimethylphenyl)piperazin-1-yl)-2-(3-(2-(hydroxymethyl)morpholine-4-carbonyl)-4,5,6,7-tetrahydro-1H-indazol-1-yl)ethanone] |
| 65 | 2.63 | CC(=O)NC1CCN(C(=O)c2nn(CC(=O)N3CCN(c4cccc(C)c4C)CC3)c3c2CCCC3)CC1 [Example 471, N-(1-(1-(2-(4-(2,3-dimethylphenyl)piperazin-1-yl)-2-oxoethyl)-4,5,6,7-tetrahydro-1H-indazole-3-carbonyl)piperidin-4-yl) acetamide] |
| 208 | 3.37 | Cc1cccc(N2CCN(C(=O)Cn3nc(C(=O)N4CC[C@@H](O)[C@H](F)C4)c4c3CCCC4)CC2)c1C [Example 472, 1-(4-(2,3-dimethylphenyl)piperazin-1-yl)-2-(3-((3R,4R)-3-fluoro-4-hydroxypiperidine-1-carbonyl)-4,5,6,7-tetrahydro-1H-indazol-1-yl)ethanone] |
| 101 | 4.16 | Cc1cccc(N2CCN(C(=O)Cn3nc(C(=O)N4CCC(NC(=O)CO)CC4)c4c3CCCC4)CC2)c1C [Example 473] |
| 52 | 4.26 | Cc1cccc(N2CCN(C(=O)Cn3nc(C(=O)N4CC[C@H](O)[C@H](F)C4)c4c3CCCC4)CC2)c1C [Example 475, 1-(4-(2,3-dimethylphenyl)piperazin-1-yl)-2-(3-((3R,4S)-3-fluoro-4-hydroxypiperidine-1-carbonyl)-4,5,6,7-tetrahydro-1H-indazol-1-yl)ethanone] |
